Data: US8754068B2, “Modified C-3 betulinic acid derivatives as HIV maturation inhibitors” (priority 2010, dated 2014)

System: recombinant NL4-3 virus (Renilla luciferase in nef, Gag P373S)
Experiment: HIV cell culture assay (luciferase reporter virus in MT-2 cells)
Type: cell-based
Conditions: NL43
Description: HIV cell culture assay—MT-2 cells and 293T cells were obtained from the NIH AIDS Research and Reference Reagent Program. MT-2 cells were propagated in RPMI 1640 media supplemented with 10% heat inactivated fetal bovine serum, […]. The 293T cells were propagated in DMEM media supplemented with 10% heat inactivated fetal bovine serum (FBS), 100 units/ml penicillin G and 100 μg/ml streptomycin. The proviral DNA clone of NL4-3 was obtained from the NIH AIDS Research and Reference Reagent Program. A recombinant NL4-3 virus, in which a section of the nef gene from NL4-3 was replaced with the Renilla luciferase gene, was used as a reference virus. In addition, residue Gag P373 was converted to P373S. Briefly, the recombinant virus was prepared by transfection of the altered proviral clone of NL4-3. Transfections were performed in 293T cells using LipofectAMINE PLUS from Invitrogen (Carlsbad, Calif.), according to manufacturer's instruction. The virus was titered in MT-2 cells using luciferase enzyme activity as a marker. Luciferase was quantitated using the Dual Luciferase kit from Promega (Madison, Wis.), with modifications to the manufacturer's protocol. The diluted Passive Lysis solution was pre-mixed with the re-suspended Luciferase Assay Reagent and the re-suspended Stop & Glo Substrate (2:1:1 ratio). Fifty (50) μL of the mixture was added to each aspirated well on assay plates and luciferase activity was measured immediately on a Wallac TriLux (Perkin-Elmer). Antiviral activities of inhibitors toward the recombinant virus were quantified by measuring luciferase activity in cells infected for 4-5 days with NLRluc recombinants in the presence serial dilutions of the inhibitor. Table 1 is the key for the data in Table 2.

Molecule `C=C(C)[C@@H]1CC[C@]2(C(=O)OC)CC[C@]3(C)[C@H](CC[C@@H]4[C@@]5(C)CC=C(c6cccc(C(=O)O)c6)C(C)(C)[C@@H]5CC[C@]43C)[C@@H]12` [Example 1a, 3-((1R,3aS,5aR,5bR,7aR,11aS,13aR,13bR)-3a-(methoxycarbonyl)-5a,5b,8,8,11a-pentamethyl-1-(prop-1-en-2-yl)-2,3,3a,4,5,5a,5b,6,7,7a,8,11,11a,11b,12,13,13a,13b-octadecahydro-1H-cyclopenta[a]chrysen-9-yl)benzoic acid] has an EC50 of over 1 µM.
Molecule `C=C(C)[C@@H]1CC[C@]2(C(=O)OC)CC[C@]3(C)[C@H](CC[C@@H]4[C@@]5(C)CC=C(c6ccc(C(=O)O)cc6)C(C)(C)[C@@H]5CC[C@]43C)[C@@H]12` [Example 1b, 4-((1R,3aS,5aR,5bR,7aR,11aS,13aR,13bR)-3a-(methoxycarbonyl)-5a,5b,8,8,11a-pentamethyl-1-(prop-1-en-2-yl)-2,3,3a,4,5,5a,5b,6,7,7a,8,11,11a,11b,12,13,13a,13b-octadecahydro-1H-cyclopenta[a]chrysen-9-yl)benzoic acid] has an EC50 of under 1 µM.
`C=C(C)[C@@H]1CC[C@]2(C(=O)O)CC[C@]3(C)[C@H](CC[C@@H]4[C@@]5(C)CC=C(c6cccc(C(=O)O)c6)C(C)(C)[C@@H]5CC[C@]43C)[C@@H]12` [Example 2a, (1R,3aS,5aR,5bR,7aR,11aS,13aR,13bR)-9-(3-carboxyphenyl)-5a,5b,8,8,11a-pentamethyl-1-(prop-1-en-2-yl)-2,3,3a,4,5,5a,5b,6,7,7a,8,11,11a,11b,12,13,13a,13b-octadecahydro-1H-cyclopenta[a]chrysene-3a-carboxylic acid] was tested, and the EC50 was over 1 µM.
With `C=C(C)[C@@H]1CC[C@]2(C(=O)O)CC[C@]3(C)[C@H](CC[C@@H]4[C@@]5(C)CC=C(c6ccc(C(=O)O)cc6)C(C)(C)[C@@H]5CC[C@]43C)[C@@H]12` [Example 2b, (1R,3aS,5aR,5bR,7aR,11aS,13aR,13bR)-9-(4-carboxyphenyl)-5a,5b,8,8,11a-pentamethyl-1-(prop-1-en-2-yl)-2,3,3a,4,5,5a,5b,6,7,7a,8,11,11a,11b,12,13,13a,13b-octadecahydro-1H-cyclopenta[a]chrysene-3a-carboxylic acid] the EC50 was under 1 µM.
`CC(C)[C@@H]1CC[C@]2(C(=O)O)CC[C@]3(C)[C@H](CC[C@@H]4[C@@]5(C)CC[C@H](c6cccc(C(=O)O)c6)C(C)(C)[C@@H]5CC[C@]43C)[C@@H]12` [Example 3a, (3aS,5aR,5bR,7aS,9S,11aS,13aR,13bR)-9-(3-carboxyphenyl)-1-isopropyl-5a,5b,8,8,11a-pentamethylicosahydro-1H-cyclopenta[a]chrysene-3a-carboxylic acid] showed an EC50 of 2 µM.
Molecule `CC(C)[C@@H]1CC[C@]2(C(=O)O)CC[C@]3(C)[C@H](CC[C@@H]4[C@@]5(C)CC[C@H](c6ccc(C(=O)O)cc6)C(C)(C)[C@@H]5CC[C@]43C)[C@@H]12` [Example 3b, (1S,3aS,5aR,5bR,7aS,9S,11aS,11bR,13aR,13bR)-9-(4-carboxyphenyl)-1-isopropyl-5a,5b,8,8,11a-pentamethylicosahydro-1H-cyclopenta[a]chrysene-3a-carboxylic acid] has an EC50 of under 1 µM.
Work on `C=C(C)[C@@H]1CC[C@]2(C(=O)O)CC[C@]3(C)[C@H](CC[C@@H]4[C@@]5(C)CC=C(c6ccc(CCC(=O)O)cc6)C(C)(C)[C@@H]5CC[C@]43C)[C@@H]12` [Example 4a, (1R,3aS,5aR,5bR,7aR,11aS,11bR,13aR,13bR)-9-(4-(2-carboxyethyl)phenyl)-5a,5b,8,8,11a-pentamethyl-1-(prop-1-en-2-yl)-2,3,3a,4,5,5a,5b,6,7,7a,8,11,11a,11b,12,13,13a,13b-octadecahydro-1H-cyclopenta[a]chrysene-3a-carboxylic acid] yielded an EC50 of under 1 µM.
In the case of `C=C(C)[C@@H]1CC[C@]2(C(=O)O)CC[C@]3(C)[C@H](CC[C@@H]4[C@@]5(C)CC=C(c6ccc(NC(=O)CCC(=O)O)cc6)C(C)(C)[C@@H]5CC[C@]43C)[C@@H]12` [Example 4b, (1R,3aS,5aR,5bR,7aR,11aS,11bR,13aR,13bR)-9-(4-(3-carboxypropanamido)phenyl)-5a,5b,8,8,11a-pentamethyl-1-(prop-1-en-2-yl)-2,3,3a,4,5,5a,5b,6,7,7a,8,11,11a,11b,12,13,13a,13b-octadecahydro-1H-cyclopenta[a]chrysene-3a-carboxylic acid], the EC50 is reported as over 1 µM.
With `C=C(C)[C@@H]1CC[C@]2(C(=O)O)CC[C@]3(C)[C@H](CC[C@@H]4[C@@]5(C)CC=C(c6ccc(C7(C(=O)O)CC7)cc6)C(C)(C)[C@@H]5CC[C@]43C)[C@@H]12` [Example 4c, (1R,3aS,5aR,5bR,7aR,11aS,11bR,13aR,13bR)-9-(4-(1-carboxycyclopropyl)phenyl)-5a,5b,8,8,11a-pentamethyl-1-(prop-1-en-2-yl)-2,3,3a,4,5,5a,5b,6,7,7a,8,11,11a,11b,12,13,13a,13b-octadecahydro-1H-cyclopenta[a]chrysene-3a-carboxylic acid] the EC50 was under 1 µM.
`C=C(C)[C@@H]1CC[C@]2(C(=O)O)CC[C@]3(C)[C@H](CC[C@@H]4[C@@]5(C)CC=C(c6ccc(C(=O)O)c(F)c6)C(C)(C)[C@@H]5CC[C@]43C)[C@@H]12` [Example 4d, (1R,3aS,5aR,5bR,7aR,11aS,11bR,13aR,13bR)-9-(4-carboxy-3-fluorophenyl)-5a,5b,8,8,11a-pentamethyl-1-(prop-1-en-2-yl)-2,3,3a,4,5,5a,5b,6,7,7a,8,11,11a,11b,12,13,13a,13b-octadecahydro-1H-cyclopenta[a]chrysene-3a-carboxylic acid] gave an EC50 of under 1 µM.
`C=C(C)[C@@H]1CC[C@]2(C(=O)O)CC[C@]3(C)[C@H](CC[C@@H]4[C@@]5(C)CC=C(c6cccc(S(=O)(=O)NC)c6)C(C)(C)[C@@H]5CC[C@]43C)[C@@H]12` [Example 4e, (1R,3aS,5aR,5bR,7aR,11aS,11bR,13aR,13bR)-5a,5b,8,8,11a-pentamethyl-9-(3-(N-methylsulfamoyl)phenyl)-1-(prop-1-en-2-yl)-2,3,3a,4,5,5a,5b,6,7,7a,8,11,11a,11b,12,13,13a,13b-octadecahydro-1H-cyclopenta[a]chrysene-3a-carboxylic acid] gave an EC50 of under 1 µM.
`C=C(C)[C@@H]1CC[C@]2(C(=O)O)CC[C@]3(C)[C@H](CC[C@@H]4[C@@]5(C)CC=C(c6ccc(O)cc6)C(C)(C)[C@@H]5CC[C@]43C)[C@@H]12` [Example 4f, (1R,3aS,5aR,5bR,7aR,11aS,11bR,13aR,13bR)-9-(4-hydroxyphenyl)-5a,5b,8,8,11a-pentamethyl-1-(prop-1-en-2-yl)-2,3,3a,4,5,5a,5b,6,7,7a,8,11,11a, 11b,12,13,13a,13b-octadecahydro-1H-cyclopenta[a]chrysene-3a-carboxylic acid] showed an EC50 of under 1 µM.
`C=C(C)[C@@H]1CC[C@]2(C(=O)O)CC[C@]3(C)[C@H](CC[C@@H]4[C@@]5(C)CC=C(c6cccc(NS(C)(=O)=O)c6)C(C)(C)[C@@H]5CC[C@]43C)[C@@H]12` [Example 4g, (1R,3aS,5aR,5bR,7aR,11aS,11bR,13aR,13bR)-5a,5b,8,8,11a-pentamethyl-9-(3-(methylsulfonamido)phenyl)-1-(prop-1-en-2-yl)-2,3,3a,4,5,5a,5b,6,7,7a,8,11,11a,11b,12,13,13a,13b-octadecahydro-1H-cyclopenta[a]chrysene-3a-carboxylic acid] gave an EC50 of over 1 µM.
`C=C(C)[C@@H]1CC[C@]2(C(=O)O)CC[C@]3(C)[C@H](CC[C@@H]4[C@@]5(C)CC=C(c6ccc(/C=C/C(=O)O)cc6)C(C)(C)[C@@H]5CC[C@]43C)[C@@H]12` [Example 4h, (1R,3aS,5aR,5bR,7aR,11aS,11bR,13aR,13bR)-9-(4-((E)-2-carboxyvinyl)phenyl)-5a,5b,8,8,11a-pentamethyl-1-(prop-1-en-2-yl)-2,3,3a,4,5,5a,5b,6,7,7a,8,11,11a,11b,12,13,13a,13b-octadecahydro-1H-cyclopenta[a]chrysene-3a-carboxylic acid] gave an EC50 of under 1 µM.
With `C=C(C)[C@@H]1CC[C@]2(C(=O)O)CC[C@]3(C)[C@H](CC[C@@H]4[C@@]5(C)CC=C(c6cccc(-c7nn[nH]n7)c6)C(C)(C)[C@@H]5CC[C@]43C)[C@@H]12` [Example 4i, (1R,3aS,5aR,5bR,7aR,11aS,11bR,13aR,13bR)-9-(3-(2H-tetrazol-5-yl)phenyl)-5a,5b,8,8,11a-pentamethyl-1-(prop-1-en-2-yl)-2,3,3a,4,5,5a,5b,6,7,7a,8,11,11a,11b,12,13,13a,13b-octadecahydro-1H-cyclopenta[a]chrysene-3a-carboxylic acid] the EC50 was over 1 µM.
`C=C(C)[C@@H]1CC[C@]2(C(=O)O)CC[C@]3(C)[C@H](CC[C@@H]4[C@@]5(C)CC=C(c6ccc(S(C)(=O)=O)cc6)C(C)(C)[C@@H]5CC[C@]43C)[C@@H]12` [Example 4j, (1R,3aS,5aR,5bR,7aR,11aS,11bR,13aR,13bR)-5a,5b,8,8,11a-pentamethyl-9-(4-(methylsulfonyl)phenyl)-1-(prop-1-en-2-yl)-2,3,3a,4,5,5a,5b,6,7,7a,8,11,11a,11b,12,13,13a,13b-octadecahydro-1H-cyclopenta[a]chrysene-3a-carboxylic acid] gave an EC50 of over 1 µM.
